The record followed here is US20120121540A1 (priority 2007, published 2012).

The experiment can be described thus: HCV replicon assay (luciferase reporter, ET cell line). The class given is cell-based. The note with it: Hepatitis C virus, HCV replicon luciferase activity in ET cells. A digest of the protocol:
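EC50 and, via WST-1 cytotoxicity, TC50 were fitted with a Hill-coefficient equation to % inhibition across 10 two-fold dilutions. Compounds at 0.1 nM-[…] with 0.5% DMSO were applied 24 h post-seeding to replicon-bearing ET cells (luc-ubi-neo/NS3-5B, adaptive mutations). Firefly luciferase signal was measured after 48-72 h.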

The term inhibition denotes the relative decrease from the control value, in per cent. Low values mean little suppression, high ones strong suppression. In turn, `O=C(c1nc2c(C(F)(F)F)cc(-c3ccoc3)cn2c1Cl)N1CCN(c2ccc(F)cc2)CC1` [Compound 530, (3-Chloro-6-furan-3-yl-8-trifluoromethyl-imidazo[1,2-a]pyridine-2-yl)-[4-(4-fluoro-phenyl)-piperazin-1-yl]-methanone] yielded an inhibition at 10 µM of 80.3%.

For the compound `O=C(c1nc2c(C(F)(F)F)cc(-c3ccoc3)cn2c1Cl)N1CCN(c2cccc(F)c2)CC1` [Compound 531, (3-Chloro-6-furan-3-yl-8-trifluoromethyl-imidazo[1,2-a]pyridine-2-yl)-[4-(3-fluoro-phenyl)-piperazin-1-yl]-methanone], the inhibition at 10 µM came to 79.3%.

Take `O=C(c1nc2c(C(F)(F)F)cc(-c3ccoc3)cn2c1Cl)N1CCN(c2ccccn2)CC1` [Compound 532, (3-Chloro-6-furan-3-yl-8-trifluoromethyl-imidazo[1,2-a]pyridine-2-yl)-[4-pyridin-2-yl-piperazin-1-yl]-methanone]: the inhibition at 10 µM came to 79.1%.

For the compound `O=C(c1nc2c(C(F)(F)F)cc(-c3ccoc3)cn2c1Cl)N1CCN(c2ccncc2)CC1` [Compound 533, (3-Chloro-6-furan-3-yl-8-trifluoromethyl-imidazo[1,2-a]pyridine-2-yl)-[4-pyridin-4-yl-piperazin-1-yl]-methanone], at 10 µM the inhibition was 23.4%.

`O=C(c1nc2c(C(F)(F)F)cc(-c3ccoc3)cn2c1Cl)N1CCN(c2ccccc2)CC1` [Compound 534, (3-Chloro-6-furan-3-yl-8-trifluoromethyl-imidazo[1,2-a]pyridine-2-yl)-(4-phenyl-piperazin-1-yl)-methanone]: the inhibition at 10 µM turned out to be 77.6%.

Compound `O=C(c1nc2c(C(F)(F)F)cc(-c3ccoc3)cn2c1Cl)N1CCC(c2ccccc2)CC1` [Compound 535, (3-Chloro-6-furan-3-yl-8-trifluoromethyl-imidazo[1,2-a]pyridine-2-yl)-(4-phenyl-piperidin-1-yl)-methanone] came in with an inhibition at 10 µM of 86.6%.

As to `O=C(c1nc2c(C(F)(F)F)cc(-c3ccoc3)cn2c1Cl)N1CCN(c2nccs2)CC1` [Compound 536, (3-Chloro-6-furan-3-yl-8-trifluoromethyl-imidazo[1,2-a]pyridine-2-yl)-(4-thiazol-2-yl-piperazin-1-yl)-methanone], the inhibition at 10 µM stood at 95.8%.

Regarding `O=C(c1nc2c(C(F)(F)F)cc(-c3ccoc3)cn2c1Cl)N1CCN(c2cnccn2)CC1` [Compound 537], at 10 µM the inhibition was 61%.

Consider `O=C(c1nc2c(C(F)(F)F)cc(-c3ccoc3)cn2c1Cl)N1CCN(c2ccc(F)c(F)c2)CC1` [Compound 538], for which the inhibition at 10 µM stood at 78.3%.

The compound `O=C(c1nc2c(C(F)(F)F)cc(-c3ccoc3)cn2c1Cl)N1CCN(c2ccc(C(F)(F)F)cc2)CC1` [Compound 539] registered an inhibition at 10 µM of 78.9%.

Compound `N#Cc1ccccc1C1CCN(C(=O)c2nc3c(C(F)(F)F)cc(-c4ccoc4)cn3c2Cl)CC1` [Compound 540, 2-[1-(3-Chloro-6-furan-3-yl-8-trifluoromethyl-imidazo[1,2-a]pyridine-2-carbonyl)-piperidin-4-yl]-benzonitrile] yielded an inhibition at 10 µM of 98.6%.

For `O=C(c1nc2c(C(F)(F)F)cc(-c3ccoc3)cn2c1Cl)N1CCC(c2ccccc2Cl)CC1` [Compound 541, (3-Chloro-6-furan-3-yl-8-trifluoromethyl-imidazo[1,2-a]pyridin-2-yl)-[4-(2-chloro-phenyl)-piperidin-1-yl]-methanone], the inhibition at 10 µM came to 89.7%.

`Cc1ccccc1C1CCN(C(=O)c2nc3c(C(F)(F)F)cc(-c4ccoc4)cn3c2Cl)CC1` [Compound 542, (3-Chloro-6-furan-3-yl-8-trifluoromethyl-imidazo[1,2-a]pyridin-2-yl)-(4-o-tolyl-piperidin-1-yl)-methanone] returned an inhibition at 10 µM of 72.4%.

Compound `O=C(c1nc2c(C(F)(F)F)cc(-c3ccoc3)cn2c1Cl)N1CCN(c2cccnc2)CC1` [Compound 543, (3-Chloro-6-furan-3-yl-8-trifluoromethyl-imidazo[1,2-a]pyridin-2-yl)-(4-pyridin-3-yl-piperazin-1-yl)-methanone] returned an inhibition at 10 µM of 91.2%.

Compound `O=C(c1nc2c(C(F)(F)F)cc(-c3ccoc3)cn2c1Cl)N1CCCCC1c1ccccc1F` (stereo not shown) [Compound 544, (3-Chloro-6-furan-3-yl-8-trifluoromethyl-imidazo[1,2-a]pyridin-2-yl)-[2-(2-fluoro-phenyl)-piperidin-1-yl)-methanone] showed an inhibition at 10 µM of 75.4%.

`O=C(c1nc2c(C(F)(F)F)cc(-c3ccoc3)cn2c1Cl)N1CCCCC1c1cccc(F)c1` (stereo not shown) [Compound 545, (3-Chloro-6-furan-3-yl-8-trifluoromethyl-imidazo[1,2-a]pyridin-2-yl)-[2-(3-fluoro-phenyl)-piperidin-1-yl)-methanone] returned an inhibition at 10 µM of 70.2%.

`O=C(c1nc2c(C(F)(F)F)cc(-c3ccoc3)cn2c1Cl)N1CCCC(c2ccccc2F)C1` (stereo not shown) [Compound 547, (3-Chloro-6-furan-3-yl-8-trifluoromethyl-imidazo[1,2-a]pyridin-2-yl)-[3-(2-fluoro-phenyl)-piperidin-1-yl)-methanone] had an inhibition at 10 µM of 94.7%.

`O=C(c1nc2c(C(F)(F)F)cc(-c3ccoc3)cn2c1Cl)N1CCCC(c2ccc(F)cc2)C1` (stereo not shown) [Compound 548, (3-Chloro-6-furan-3-yl-8-trifluoromethyl-imidazo[1,2-a]pyridin-2-yl)-[3-(4-fluoro-phenyl)-piperidin-1-yl)-methanone]: the inhibition at 10 µM worked out at 91.2%.

The compound `O=C(c1nc2c(C(F)(F)F)cc(-c3ccoc3)cn2c1Cl)N1CCCC(c2cccc(F)c2)C1` (stereo not shown) [Compound 549, (3-Chloro-6-furan-3-yl-8-trifluoromethyl-imidazo[1,2-a]pyridin-2-yl)-[3-(3-fluoro-phenyl)-piperidin-1-yl)-methanone] came in with an inhibition at 10 µM of 94.3%.

As to `COc1ccccc1C1CCN(C(=O)c2nc3c(C(F)(F)F)cc(-c4ccoc4)cn3c2Cl)CC1` [Compound 550, (3-Chloro-6-furan-3-yl-8-trifluoromethyl-imidazo[1,2-a]pyridin-2-yl)-[4-(2-methoxy-phenyl)-piperidin-1-yl)-methanone], the inhibition at 10 µM was determined as 64.8%.

For `O=C(c1nc2c(C(F)(F)F)cc(-c3ccoc3)cn2c1Cl)N1CCN(c2noc3ccccc23)CC1` [Compound 551, (4-Benzo[d]isoxazol-3-yl-piperazin-1-yl)-(3-Chloro-6-furan-3-yl-8-trifluoromethyl-imidazo[1,2-a]pyridine-2-yl)-methanone], the inhibition at 10 µM was 38.5%.

In the case of `O=C(c1nc2c(C(F)(F)F)cc(-c3ccoc3)cn2c1Cl)N1CCC(n2c(=O)[nH]c3ccccc32)CC1` [Compound 552, 1-[1-(3-Chloro-6-furan-3-yl-8-trifluoromethyl-imidazo[1,2-a]pyridine-2-carbonyl)-piperidin-4-yl]-1,3-dihydro-benzoimidazol-2-one], the inhibition at 10 µM is 6%.

In the case of `O=C(c1nc2c(C(F)(F)F)cc(-c3ccoc3)cn2c1Cl)N1CCC(n2cc(-c3ccccc3)[nH]c2=O)CC1` [Compound 553, 1-[1-(3-Chloro-6-furan-3-yl-8-trifluoromethyl-imidazo[1,2-a]pyridine-2-carbonyl)-piperidin-4-yl]-4-phenyl-1,3-dihydro-imidazol-2-one], at 10 µM the inhibition was 43.6%.

For `O=C(NCCc1ccccn1)c1nc2c(C(F)(F)F)cc(-c3ccoc3)cn2c1Cl` [Compound 554, 3-Chloro-6-furan-3-yl-8-trifluoromethyl-imidazo[1,2-a]pyridine-2-carboxylic acid (2-pyridin-2-yl-ethyl)-amide], the inhibition at 10 µM is 97.4%.

As to `O=C(c1nc2c(C(F)(F)F)cc(-c3ccoc3)cn2c1Cl)N1CC=C(c2ccccc2F)CC1` [Compound 555, (3-Chloro-6-furan-3-yl-8-trifluoromethyl-imidazo[1,2-a]pyridin-2-yl)-[4-(2-fluoro-phenyl)-3,6-dihydro-2H-pyridin-1-yl)-methanone], the inhibition at 10 µM was determined as 95.5%.

Take `O=C(c1nc2c(C(F)(F)F)cc(-c3ccoc3)cn2c1Cl)N1CCC(c2nccs2)CC1` [Compound 556, (3-Chloro-6-furan-3-yl-8-trifluoromethyl-imidazo[1,2-a]pyridin-2-yl)-(4-thiazol-2-yl-piperidin-1-yl)-methanone]: the inhibition at 10 µM came out at 99.5%.

As to `O=C(c1nc2c(C(F)(F)F)cc(-c3ccoc3)cn2c1Cl)N1CCC(c2cscn2)CC1` [Compound 557, (3-Chloro-6-furan-3-yl-8-trifluoromethyl-imidazo[1,2-a]pyridin-2-yl)-(4-thiazol-4-yl-piperidin-1-yl)-methanone], 10 µM produced 93% inhibition.

Take `O=C(c1nc2c(C(F)(F)F)cc(-c3ccoc3)cn2c1Cl)N1CC=C(c2c[nH]cn2)CC1` [Compound 558, (3-Chloro-6-furan-3-yl-8-trifluoromethyl-imidazo[1,2-a]pyridin-2-yl)-[4-(1H-imidazol-4-yl)-3,6-dihydro-2H-pyridin-1-yl]-methanone]: testing at 10 µM gave an inhibition of 89.3%.

Take `O=C(c1nc2c(C(F)(F)F)cc(-c3ccoc3)cn2c1Cl)N1CC=C(c2nccs2)CC1` [Compound 559, (3-Chloro-6-furan-3-yl-8-trifluoromethyl-imidazo[1,2-a]pyridine-2-yl)-(4-thiazol-2-yl-3,6-dihydro-2H-pyridin-1-yl)-methanone]: the inhibition at 10 µM was 99.1%.

Compound `CCN(CC)C(=O)c1ccccc1C1=CCN(C(=O)c2nc3c(C(F)(F)F)cc(-c4ccoc4)cn3c2Cl)CC1` [Compound 560, 2-[1-(3-Chloro-6-furan-3-yl-8-trifluoromethyl-imidazo[1,2-a]pyridine-2-carbonyl)-1,2,3,6-tetrahydro-pyridin-4-yl]-N,N-diethyl-benzamide] came in with an inhibition at 10 µM of 80.9%.

As for `O=C(c1nc2c(C(F)(F)F)cc(-c3ccoc3)cn2c1Cl)N1CC=C(c2ccccc2CO)CC1` [Compound 561, (3-Chloro-6-furan-3-yl-8-trifluoromethyl-imidazo[1,2-a]pyridin-2-yl)-[4-(2-hydroxymethyl-phenyl)-3,6-dihydro-2H-pyridin-1-yl)-methanone], at 10 µM the inhibition was 89.1%.
